Experimental data reported in publication PMC6720825, “Thiol-ene "Click" Synthesis and Pharmacological Evaluation of C-Glycoside sp^2-Iminosugar Glycolipids” (Molecules, 2019).
Entries after “also recorded” stand apart in the source; their conditions may differ.

What was measured:
α-Glcase (Yeast Maltase) = molecular target: T1, α-Glcase (Yeast Maltase) (Saccharomyces cerevisiae, UniProt P53341); assay: Glycosidase inhibition (Ki), yeast maltase α-glucosidase; format: biochemical; conditions: for Ki, α-Glcase (Yeast Maltase): mean ± SD, three independent determinations, competitive inhibition
T1 construct: purchased
T1 sequence (P53341 whole entry): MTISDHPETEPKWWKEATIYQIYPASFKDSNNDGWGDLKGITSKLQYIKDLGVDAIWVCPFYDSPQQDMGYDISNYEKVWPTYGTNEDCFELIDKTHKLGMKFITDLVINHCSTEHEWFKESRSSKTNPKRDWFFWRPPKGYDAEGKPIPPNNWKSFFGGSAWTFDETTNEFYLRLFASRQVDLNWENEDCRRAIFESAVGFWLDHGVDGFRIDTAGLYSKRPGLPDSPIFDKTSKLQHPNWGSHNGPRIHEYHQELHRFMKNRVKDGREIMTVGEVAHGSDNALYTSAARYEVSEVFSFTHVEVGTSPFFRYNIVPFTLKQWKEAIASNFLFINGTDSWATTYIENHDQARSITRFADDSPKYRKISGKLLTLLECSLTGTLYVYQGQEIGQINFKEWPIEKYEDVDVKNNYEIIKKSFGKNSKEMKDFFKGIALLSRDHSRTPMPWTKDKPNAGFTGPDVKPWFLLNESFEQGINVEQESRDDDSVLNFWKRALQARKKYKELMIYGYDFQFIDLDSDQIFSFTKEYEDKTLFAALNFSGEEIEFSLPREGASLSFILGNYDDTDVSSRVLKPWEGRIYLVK
Source text: (§1) The inhibitory properties of the new sp^2-IGLs 1–12 and the α-C-allyl ONJ and OGJ glycosides 15, and 24 were examined against a panel of commercial glycosidases that included the α-glucosidases maltase (Saccharomyces cerevisiae) and amyloglucosidase (Aspergillus niger), the β-glucosidases from almonds and bovine liver, α-galactosidase from green coffee beans, β-galactosidase from Escherichia coli, α-mannosidase from Jack beans, and β-mannosidase from Helix pomatia. The corresponding inhibition constant (Ki) values are collected in Table 1.
(§2) Inhibition constant (Ki) values were determined by spectrophotometrically measuring the residual hydrolytic activities of the glycosidases against the respective o- (for β-galactosidase from E. coli) or p-nitrophenyl α- or β-D-glycopyranoside (for other glycosidases) in the presence of the iminosugars. Each assay was performed in phosphate buffer or phosphate-citrate buffer (for α- or β-mannosidase and amyloglucosidase) at the optimal pH for the enzymes. The reactions were initiated by addition of the enzyme to a solution of the substrate in the absence or presence of various inhibitor concentrations. The mixture was incubated for 10–30 min at 37 °C or 55 °C (for amyloglucosidase) and the reaction was quenched by addition of 1 M Na2CO3. Reaction times were appropriate to obtain 10–20% conversion of the substrate in order to achieve linear rates. The absorbance of the resulting mixture was determined at 405 nm. Approximate value of Ki was determined from the slope of Dixon plots using a fixed concentration of substrate (around the Km value for the different glycosidases) and various concentrations of inhibitor. Full Ki determinations and enzyme inhibition mode were determined from the slope of Lineweaver–Burk plots and double reciprocal analysis. Representative examples of Dixon and Lineweaver–Burk plots are shown in the Supplementary materials.

β-Glcase (Bovine Liver) = molecular target: T2, β-Glcase (Bovine Liver) (Bos taurus, UniProt F1MNT6); assay: Glycosidase inhibition (Ki), bovine liver β-glucosidase; format: biochemical; conditions: mean ± SD, three independent determinations; competitive inhibition
T2 sequence (F1MNT6 1-469): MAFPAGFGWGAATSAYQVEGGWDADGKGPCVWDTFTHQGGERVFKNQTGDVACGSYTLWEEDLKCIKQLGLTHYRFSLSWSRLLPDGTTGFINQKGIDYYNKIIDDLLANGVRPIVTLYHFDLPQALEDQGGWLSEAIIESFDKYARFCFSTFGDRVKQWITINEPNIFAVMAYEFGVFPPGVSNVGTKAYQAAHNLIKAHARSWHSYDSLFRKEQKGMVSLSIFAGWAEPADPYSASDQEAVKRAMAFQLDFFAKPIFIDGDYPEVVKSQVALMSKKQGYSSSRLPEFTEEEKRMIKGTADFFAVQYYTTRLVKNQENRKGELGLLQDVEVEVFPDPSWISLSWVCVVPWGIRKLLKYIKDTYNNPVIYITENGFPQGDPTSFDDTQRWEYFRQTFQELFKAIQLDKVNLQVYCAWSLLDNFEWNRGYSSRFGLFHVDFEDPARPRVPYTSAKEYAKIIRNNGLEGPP
Source text: as §1, §2

[1] = system: human solid tumor cell lines A549, SW1573 (lung), HBL-100, T-47D (breast), HeLa (cervix), WiDr (colon); assay: Antiproliferative activity (SRB assay) against a panel of six human solid tumor cell lines; format: cell-based; conditions: for GI50: read-out: GI50 (concentration to achieve 50% growth inhibition), 48 h, tested 1 to 100 μM, only values below 100 μM significant
Experimental: The antiproliferative activity of all the sp^2-iminosugar C-glycosides (1–12) was evaluated against a panel of six representative human solid tumor cell lines including lung (A549 and SW1573), breast (HBL-100, T-47D), cervix (HeLa), and colon (WiDr).
All reagents were used as purchased from commercial suppliers without further purification. The human solid tumor cell lines A549 (lung), HBL-100 (breast), HeLa (cervix), SW1573 (lung), T-47D (breast), and WiDr (colon) were used in this study. These cell lines were a kind gift from Prof. G. J. Peters (VU Medical Center, Amsterdam, The Netherlands).
Cells were inoculated onto 96-well microtiter plates in a volume of 100 μL per well at densities of 2500 (A549, HBL-100, HeLa, and SW1573) and 5000 (T-47D and WiDr) cells per well, based on their doubling times. Compounds were initially dissolved in DMSO at 400 times the desired final maximum test concentration. Control cells were exposed to an equivalent concentration of DMSO (0.25% v/v, negative control). Each agent was tested in triplicate at different dilutions in the range of 1 to 100 μM. The drug treatment started on day 1 after plating. Drug incubation times were 48 h, after which cells were precipitated with 25 μL ice-cold TCA (50% w/v) and fixed for 60 min at 4 °C. Then the SRB assay was performed. The optical density (OD) of each well was measured at 530 nm, using BioTek’s PowerWave XS Absorbance Microplate Reader. Values were corrected for background OD from wells only containing medium. The antiproliferative activity for each compound, expressed as GI50 values, was calculated according to NCI formulas.

[2] = system: intracellular amastigotes of Leishmania donovani MHOM/ET/67/HU3 line; assay: Susceptibility of intracellular Leishmania amastigotes (luciferase assay); format: cell-based; conditions: L. donovani in THP-1 macrophages, 72 h at 37 °C, threshold 20 μM
Experimental: The leishmanicidal activity of all the synthesized sp^2-iminosugar C-glycosides (1–12) was evaluated against intracellular amastigotes of Leishmania donovani MHOM/ET/67/HU3 line with luciferase gene integrated into the parasite genome. […] A strong influence of the nature of the lipid chain α-linked to the pseudoanomeric position of the bicyclic core in the sp^2-IGLs was inferred from the corresponding data. […] The longer-chain sp^2-IGLs 2 and 8 were over the 20 μM concentration threshold in this assay. In the sulfone series, the results evidenced some disparity between the ONJ and OGJ epimers.
Macrophage-differentiated THP-1 cells, which are considered a suitable model for human macrophages, were plated at a density of 3 × 10^4 or 3 × 10^5 macrophages/well in 96-well white polystyrene microplates or 24-well tissue culture chamber slides, respectively, and were infected at a macrophage/parasite ratio of 1:10 with L. donovani promastigotes. Twenty-four hours after infection at 35 °C and 5% CO2, extracellular parasites were removed by washing with serum-free medium. Infected cell cultures were then incubated at different compound concentrations in RPMI 1640 medium plus 10% iFBS at 37 °C with 5% CO2 for 72 h. To determine the susceptibility of L. donovani LUC amastigotes, infected macrophages maintained in 96-well plates were lysed and then luminescence intensity was measured as indicative of the intracellular parasite growth, using the Luciferase Assay System Kit (Promega, Madison, Wis.) according to the instructions of the supplier. To determine the susceptibility of L. donovani HU3 amastigotes, infected macrophages maintained in 24-well plates were fixed for 30 min at 4 °C with 2.5% paraformaldehyde phosphate-buffered saline (PBS; 1.2 mM KH2PO4, 8.1 mM Na2HPO4, 130 mM NaCl, and 2.6 mM KCl adjusted to pH 7) and permeabilized with 0.1% Triton X-100 in PBS for 30 min. Intracellular parasites and macrophages were detected by nuclear staining with ProLong® Gold antifade reagent plus DAPI (Invitrogen). The percentage infection and mean number of amastigotes from infected macrophages were determined with 200 macrophages/well.

THP-1 cells = assay: Cellular toxicity (MTT assay) in THP-1 cells; format: cell-based, human; conditions: for EC50: Homo sapiens, THP-1, MTT assay, 72 h at 37 °C
Experimental: Human myelomonocytic cell line THP-1 was grown at 37 °C and 5% CO2 in RPMI-1640 supplemented with 10% iFBS, 2 mM […], 100 U/mL penicillin, and 100 μg/mL streptomycin; 3 × 10^4 cells/well in 96-well plates were differentiated to macrophages with 20 ng/mL of PMA treatment for 48 h followed by 24 h of culture in fresh medium. Cellular toxicity of all compounds was determined using the colorimetric MTT-based assay after incubation at 37 °C for 72 h in the presence of increasing concentrations of compounds [71].

[3] = system: human lung fibroblast MRC-5 cells; assay: Cellular toxicity (MTT assay) in MRC-5 cells; format: cell-based; conditions: for EC50: Homo sapiens, MRC5, MTT assay, 72 h at 37 °C; for SI (EC50 MRC-5/EC50 parasite): Selectivity Index
[4] = molecular target: T3, green coffee bean α-galactosidase (Coffea arabica, UniProt Q42656); assay: Glycosidase inhibition, green coffee bean α-galactosidase; format: biochemical, green coffee beans; conditions: 1 mM concentration
T3 construct: purchased
T3 sequence (Q42656 16-378): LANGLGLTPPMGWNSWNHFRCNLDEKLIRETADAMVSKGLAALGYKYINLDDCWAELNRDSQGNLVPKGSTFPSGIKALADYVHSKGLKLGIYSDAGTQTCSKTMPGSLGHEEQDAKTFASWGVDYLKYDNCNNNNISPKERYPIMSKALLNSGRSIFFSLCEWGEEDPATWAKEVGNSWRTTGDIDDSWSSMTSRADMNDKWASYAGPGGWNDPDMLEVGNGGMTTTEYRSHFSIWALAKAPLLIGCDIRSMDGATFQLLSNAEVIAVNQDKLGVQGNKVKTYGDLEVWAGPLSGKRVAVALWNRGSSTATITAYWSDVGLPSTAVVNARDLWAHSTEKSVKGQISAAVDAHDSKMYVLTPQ
Source text: as §1
Inhibition constant (Ki) values were determined by spectrophotometrically measuring the residual hydrolytic activities of the glycosidases against the respective o- (for β-galactosidase from E. coli) or p-nitrophenyl α- or β-D-glycopyranoside (for other glycosidases) in the presence of the iminosugars. […] The absorbance of the resulting mixture was determined at 405 nm. Approximate value of Ki was determined from the slope of Dixon plots using a fixed concentration of substrate (around the Km value for the different glycosidases) and various concentrations of inhibitor. Full Ki determinations and enzyme inhibition mode were determined from the slope of Lineweaver–Burk plots and double reciprocal analysis. […]

T-47D, breast = system: T-47D, breast; set-up: method as in doi:10.1039/C5RA02627J; conditions: Figure 1; cited from earlier work
[5] = system: intracellular amastigotes of Leishmania donovani (amastigotes HU3); set-up: method as in doi:10.1039/C5RA02627J; conditions: cited from earlier work; for EC50: intracellular amastigotes of Leishmania donovani
A549, lung = system: A549, lung; set-up: method as in doi:10.1039/C5RA02627J; conditions: Figure 1; cited from earlier work
[6] = system: different human tumor cell lines; set-up: method as in doi:10.1039/C5RA02627J; conditions: read-out: GI50 against different human tumor cell lines; cited from earlier work
MCF-7, breast = system: MCF-7, breast; set-up: method as in PMID 24124558, PMID 28145580; conditions: Figure 1; cited from earlier work
MDA-MB-231, breast = system: MDA-MB-231, breast; set-up: method as in PMID 24124558, PMID 28145580; conditions: Figure 1; cited from earlier work

## CCCCCCCCSCCC[C@@H]1[C@H](O)[C@@H](O)[C@@H](O)[C@H]2COC(=O)N12 [Compound 7, (1R)-1-[3-(Octylthio)propyl]-5N,6O-oxomethylidene-1-deoxygalactonojirimycin]
α-Glcase (Yeast Maltase)
  Ki, α-Glcase (Yeast Maltase): n.i.
β-Glcase (Bovine Liver)
  Ki, β-Glcase (Bovine Liver): n.i.
[1]
  GI50: 14 to 54 µM
[2]
  EC50: 10.6 ± 1.51 µM
THP-1 cells
  EC50: 128 ± 5.71 µM
THP-1 cells; Selectivity Index
  SI (EC50 THP-1/EC50 parasite): 12.06
[3]
  EC50: 60.4 ± 2.8 µM
  SI (EC50 MRC-5/EC50 parasite): 5.72

## CC(C)(C)OC(=O)NCCSCCC[C@@H]1[C@H](O)[C@@H](O)[C@@H](O)[C@H]2COC(=O)N12 [Compound 9, (1R)-1-[3-(N-tert-Butoxycarbonylaminoethylthio)propyl]-5N,6O-oxomethylidene-1-deoxygalactonojirimycin]
α-Glcase (Yeast Maltase)
  Ki, α-Glcase (Yeast Maltase): n.i.
β-Glcase (Bovine Liver)
  Ki, β-Glcase (Bovine Liver): n.i.
[1]; 48 h, tested 1 to 100 μM, only values below 100 μM significant
  GI50 (concentration to achieve 50% growth inhibition): did not show any significant antiproliferative activity; also recorded: did not display significant antiproliferative activity
[1]
  GI50: > 100 µM
[2]
  EC50: 13.4 ± 1.13 µM
THP-1 cells
  EC50: > 200 µM
[3]
  EC50: 140 ± 17.3 µM
  SI (EC50 MRC-5/EC50 parasite): 10.44

## C=CC[C@@H]1[C@H](O)[C@@H](O)[C@H](O)[C@H]2COC(=O)N12 [Compound 15, (1R)-1-Allyl-5N,6O-oxomethylidene-1-deoxynojirimycin]
α-Glcase (Yeast Maltase)
  Ki: 79 ± 8 µM
β-Glcase (Bovine Liver)
  Ki, β-Glcase (Bovine Liver): n.i.

## C=CC[C@@H]1[C@H](O)[C@@H](O)[C@@H](O)[C@H]2COC(=O)N12 [Compound 24, (1R)-1-Allyl-5N,6O-oxomethylidene-1-deoxygalactonojirimycin]
α-Glcase (Yeast Maltase)
  Ki, α-Glcase (Yeast Maltase): n.i.
β-Glcase (Bovine Liver)
  Ki, β-Glcase (Bovine Liver): n.i.
[4]
  Inhibition of green coffee bean α-galactosidase: Neither epimeric OGJ sp^2-IGLs 7–12 nor α-allyl OGJ glycoside 24 behaved as inhibitors

## CCCCCCCCCCCCS[C@@H]1[C@H](O)[C@@H](O)[C@@H](O)[C@H]2COC(=O)N21 [DS-OGJ]
T-47D, breast
  GI50: 18 µM
[5]
  EC50: 15.5 µM

## CCCCCCCCCCCCS[C@@H]1[C@H](O)[C@@H](O)[C@H](O)[C@H]2COC(=O)N21 [DS-ONJ]
A549, lung
  GI50: 16 µM
[5]
  Improvement of leishmanicidal potency relative to OS-ONJ: up to 5 fold
  EC50: 20.5 µM
[6]
  GI50: < 20 µM

## CCCCCCCC[C@@H]1[C@H](O)[C@@H](O)[C@H](O)[C@H]2COC(=O)N12 [OC-ONJ]
MCF-7, breast
  IC50: 26 µM
MDA-MB-231, breast
  IC50: 44 µM

## CCCCCCCCS[C@@H]1[C@H](O)[C@@H](O)[C@H](O)[C@H]2COC(=O)N21 [OS-ONJ]
MCF-7, breast
  IC50: 37 µM
MDA-MB-231, breast
  IC50: 35 µM
[5]
  EC50: 73.3 µM
